Data from ChEMBL document CHEMBL1150659, “Pachyclavulariaenones D-G, new diterpenoids from the soft coral Pachyclavularia violacea” (2002).
Converted amounts (≈) assume the structure as drawn.

Key:
HT-29 = assay: Cytotoxicity against human HT-29 cells; assay type: functional
P-388 (Mus musculus) = assay: Cytotoxicity against mouse P-388 cells; conditions: read-out: ED50 (the source's name)
A549 = assay: Cytotoxicity against human A549 cells; assay type: functional
P388 = assay: Cytotoxicity against mouse P388 cells; assay type: functional, cell-based

| Structure (SMILES) | EC50 (HT-29; read-out: ED50 (the source's name)) [µg/mL] | EC50 (P-388 (Mus musculus)) [µg/mL] | Activity (HT-29) | Activity (A549) | Activity (P388) |
| --- | --- | --- | --- | --- | --- |
| CC1=CC(=O)[C@H]2[C@H]3[C@@H]1[C@@H]1C[C@@](C)(O)[C@H](O)C[C@@H](O)[C@](C)(OC[C@@H]2C)[C@H]3O1 [PACHYCLAVULARIAENONE G] | 3.2 (≈ 8.73 µM) | 0.2 (≈ 0.546 µM) |  |  |  |
| CC(=O)O[C@@H]1C[C@@H](OC(C)=O)[C@](C)(O)C[C@@H]2O[C@H]3[C@@H]4[C@H]2C(C)=CC(=O)[C@@H]4[C@@H](C)CO[C@@]13C |  |  | Not toxic | Not toxic |  |
| CC(=O)O[C@@H]1C[C@@H](O)[C@]2(C)OC[C@H](C)[C@H]3C(=O)C=C(C)[C@@H]4[C@H]3[C@@H]2O[C@H]4C[C@@]1(C)O |  |  | Not toxic | Not toxic |  |
| CC1=CC(=O)[C@H]2[C@H]3[C@@H]1[C@@H]1C/C(C)=C\C[C@@H](O)[C@](C)(OC[C@@H]2C)[C@H]3O1 |  |  | Not toxic | Not toxic | Not toxic |
